One assay has as its target T1, hMetAP2 (Homo sapiens, UniProt P50579).
T1 construct: made in house
As to the kind of experiment: MetAP enzymatic assay, hMetAP2. Conditions: Co^2+ versus Mn^2+. The class given is biochemical.

Assay [1] has as its system breast cancer cells as well as human umbilical vein endothelial cells (HUVECs). Briefly: Cell proliferation assay, breast cancer cells and HUVECs. The assay is classed as cell-based. Conditions: Homo sapiens, HUVEC, read-out: IC50 of proliferation, all the cell types. As for the experimental part:
Cell proliferation assay was performed using several different kinds of breast cancer cells as well as human umbilical vein endothelial cells (HUVECs). […].
HCC1954 cells were grown in RPMI1640 containing 10% FBS. HUVEC were grown using the EGM-2 bullet kit (Cambrex) as per manufacturer's instructions. The cells were maintained in a humidified incubator adjusted to 5% CO2. For drug screening, 10 mM stock solutions of Johns Hopkins Drug Library were arrayed in 96-well plates and screened at a final concentration of 10 μM. The cell growth was determined using a [^3H]-thymidine incorporation assay. Cells (typically 5,000 cells/well) were seeded in 96-well plates containing 0.2 ml of growth media and allowed to adhere for 24 h. The cells were then treated with drugs for 24 h. Cells were pulsed with 1 μCi [^3H]-thymidine (MP Biomedicals, 6.7 Ci mmol^−1) for 8 h and harvested, upon trypsin treatment, onto glass fiber filters (Wallac, Turku, Finland), from which ^3H counts were determined using a Perkin Elmer MicroBeta plate reader.

In another assay the test system is HUVEC. As to the kind of experiment: Endothelial cell tube formation assay. Conditions: Matrigel; EX527 1 μM, TNP470 10 nM. The class given is cell-based, human. As for the experimental part:
HUVEC were seeded on a 96-well plate (2×10^4 cells/well) coated with Matrigel. The cells were then incubated for 16˜18 h in a humidified 5% CO2 incubator at 37° C. The cells were washed carefully with PBS once and Calcein-AM solution in PBS was then added to a final concentration of 2 μM. After incubation for an additional 30 min, the cells were washed carefully with PBS and observed under a fluorescence microscope (485 nm excitation/520 nm emission). The tube formed was quantified using AngioQuant v1.33 (The MathWorks).

For a further assay, the target named is T2, SirT1 (Homo sapiens, UniProt Q96EB6).
T2 sequence (Q96EB6 1-747): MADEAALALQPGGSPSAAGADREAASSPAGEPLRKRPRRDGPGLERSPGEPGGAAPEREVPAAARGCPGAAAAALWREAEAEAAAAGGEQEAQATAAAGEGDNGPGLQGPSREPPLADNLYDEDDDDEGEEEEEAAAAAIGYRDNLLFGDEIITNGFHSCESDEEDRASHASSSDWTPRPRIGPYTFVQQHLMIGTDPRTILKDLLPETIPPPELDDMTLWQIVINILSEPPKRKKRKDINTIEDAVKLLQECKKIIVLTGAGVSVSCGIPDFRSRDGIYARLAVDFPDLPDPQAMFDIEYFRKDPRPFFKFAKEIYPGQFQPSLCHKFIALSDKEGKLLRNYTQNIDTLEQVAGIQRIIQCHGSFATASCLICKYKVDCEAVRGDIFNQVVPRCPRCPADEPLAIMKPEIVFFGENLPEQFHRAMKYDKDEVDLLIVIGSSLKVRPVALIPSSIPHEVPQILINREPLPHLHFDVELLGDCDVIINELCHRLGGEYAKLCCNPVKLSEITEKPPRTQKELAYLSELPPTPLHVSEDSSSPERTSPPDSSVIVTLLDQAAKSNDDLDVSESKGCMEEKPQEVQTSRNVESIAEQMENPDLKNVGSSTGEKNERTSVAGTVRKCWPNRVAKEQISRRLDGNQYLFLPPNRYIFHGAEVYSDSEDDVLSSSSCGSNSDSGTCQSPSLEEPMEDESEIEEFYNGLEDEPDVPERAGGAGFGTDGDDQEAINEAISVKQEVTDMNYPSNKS
As to the kind of experiment: biochemical. To be noted: SirT1 IC50, recombinant human sirtuin, fluorogenic substrate.

Experimental findings from patent US8729097B2, “Quinoline compounds as inhibitors of angiogenesis, human methionine aminopeptidase, and SIRT1, and methods of treating disorders” (The Johns Hopkins University, priority 2008, dated 2014) are described below.

“And” between values parts separate entries of the source, which are not always exact repeats. Identical values can stand only once.

T1 sequence (P50579 whole entry): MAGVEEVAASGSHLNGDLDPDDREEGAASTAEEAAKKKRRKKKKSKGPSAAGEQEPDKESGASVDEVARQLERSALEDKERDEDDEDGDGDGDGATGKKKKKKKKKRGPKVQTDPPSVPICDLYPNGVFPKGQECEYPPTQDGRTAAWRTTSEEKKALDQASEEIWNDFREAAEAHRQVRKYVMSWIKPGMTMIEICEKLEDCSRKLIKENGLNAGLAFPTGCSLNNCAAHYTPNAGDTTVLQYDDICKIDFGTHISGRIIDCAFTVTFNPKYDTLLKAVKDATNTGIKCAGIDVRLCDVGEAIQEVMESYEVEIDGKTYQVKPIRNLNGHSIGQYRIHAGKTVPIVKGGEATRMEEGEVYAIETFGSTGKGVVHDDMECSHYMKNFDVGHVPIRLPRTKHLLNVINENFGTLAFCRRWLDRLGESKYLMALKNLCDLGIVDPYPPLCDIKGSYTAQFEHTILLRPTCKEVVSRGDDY
Procedure for SirT1: The sirtuin fluorometric assay kits were obtained from Biomol. The assay was conducted according to the manufacturer's instruction. One unit of SirT1 was used per reaction. For SirT2 and SirT3, 2 units were used for the assay.

Take `O=[N+]([O-])c1ccc(O)c2ncccc12` [Entry 1c, nitroxoline]: the “potency on MetAP-2 with Co^2+ lower than with Mn^2+” value at hMetAP2 is reported as 25 fold. The IC50 in assay [1] is 2 to 5 µM; on SirT1, 8 µM and 8.5 µM. For the same compound, in the assay on HUVEC, the HUVEC tube formation result is on record as “inhibited”.
